# From patent US12187740B2, “Polymorphic forms of bictegravir potassium” (HONOUR LAB LIMITED, priority 2021, dated 2025)
# Assay: Storage stability test of crystalline Form HN1 (PXRD, HPLC purity, Karl Fischer water content)
# Assay type: physicochemical
# Set-up: Water: unit not given here
# Details: for Purity: HPLC; for Water: Karl Fischer
# Method: X-ray powder diffraction spectrum was measured on a BRUKER axs D8 advance X-ray powder diffractometer having a copper-Ka radiation. Approximately 1 gm of sample was gently flattered on a sample holder and scanned from 2 to 50 degrees two-theta, at 0.02 degrees two theta per step and a step time of 10.8 seconds. The sample was simply placed on the sample holder. The sample was rotated at 30 rpm at a voltage 40 KV and current […].
# In another aspect of the present invention Bictegravir potassium crystalline Form HN1 is stable at 5±3° C. and 25±2° C./60±5% RH (Relative humidity) and has the following stability data:
# The stability of samples was tested by PXRD, HPLC and water content was measured by Karl Fischer method.
# [1] = storage 25 ± 2° C./RH 60 ± 5%, 1st month
# [2] = storage 25 ± 2° C./RH 60 ± 5%, 3rd month
# [3] = storage 25 ± 2° C./RH 60 ± 5%, 6th month
# [4] = storage 25 ± 2° C./RH 60 ± 5%, Initial
# [5] = at 5±3° C. and 25±2° C./60±5% RH
smiles,measurement,setting,value
"O=C(NCc1c(F)cc(F)cc1F)c1cn2c(c([O-])c1=O)C(=O)N1[C@H]3CC[C@H](C3)O[C@@H]1C2.[K+] [Form HN1, Bictegravir potassium]",Purity,"storage 5 ± 3° C., 1st month",99.87
same,Purity,"storage 5 ± 3° C., 3rd month",99.81
same,Purity,"storage 5 ± 3° C., 6th month",99.81
same,Purity,"storage 5 ± 3° C., Initial",99.88
same,Purity,[1],99.87
same,Purity,[2],99.80
same,Purity,[3],99.81
same,Purity,[4],99.88
same,Water,"storage 5 ± 3° C., 1st month",2.8
same,Water,"storage 5 ± 3° C., 3rd month",2.8
same,Water,"storage 5 ± 3° C., 6th month",2.8
same,Water,"storage 5 ± 3° C., Initial",2.2
same,Water,[1],2.8
same,Water,[2],2.9
same,Water,[3],2.8
same,Water,[4],2.2
same,change in PXRD pattern after storage,[5],no change
same,change in water content after storage,[5],no change
same,decrease in purity after storage,[5],no significant decrease
same,stability on storage (overall),[5],physically and chemically stable
same,PXRD,"storage 5 ± 3° C., 1st month",Form HN1
same,PXRD,"storage 5 ± 3° C., 3rd month",Form HN1
same,PXRD,"storage 5 ± 3° C., 6th month",Form HN1
same,PXRD,"storage 5 ± 3° C., Initial",Form HN1
same,PXRD,[1],Form HN1
same,PXRD,[2],Form HN1
same,PXRD,[3],Form HN1
same,PXRD,[4],Form HN1
